Reference: patent publication US20240245770A1, “COMPOSITIONS AND METHODS FOR TREATING NEUROMUSCULAR DISORDERS” (The Regents of the University of California, priority 2019, published 2024)

System: serum cytokine/chemokine/growth factor/ligands of ALS patient
Assay: Serum Luminex, before and after NAC treatment
Assay type: in vivo, human
Protocol: (§1) Serum Luminex. Serum from patients were used to determine the levels of cytokine/chemokine/growth factor/ligands secretion using multiplex luminex assay. Scatter plot was prepared using the levels of cytokine/chemokine/growth factor/ligands in serum obtained at different dates from patients as compared to controls.
Serum Luminex. Serum from patients were used to determine the levels of cytokine/chemokine/growth factor/ligands secretion using multiplex luminex assay.
as §1

[1] = H110 RS post NAC (second line, continues Table 138A)
[2] = JC sera Apr. 5, 2020 (NAC infusion)
[3] = JC sera Apr. 16, 2020 (NAC infusion)
[4] = JC sera Apr. 23, 2020 (NAC infusion)

Compound: CC(=O)N[C@@H](CS)C(=O)O [NAC, N-Acetyl-Cysteine]
- IFN-g, ALS patient compared to healthy twin (41 plex after NAC): 1.6
- IL-2, ALS patient compared to healthy twin (41 plex after NAC): 0.9
- IL-4, ALS patient compared to healthy twin (41 plex after NAC): 1.1
- IL-10, ALS patient compared to healthy twin (41 plex after NAC): 0.95
- IL-12 p70, ALS patient compared to healthy twin (41 plex after NAC): 1.3
- IL-13, ALS patient compared to healthy twin (41 plex after NAC): 0.99
- TNF-a, ALS patient compared to healthy twin (41 plex after NAC): 2.2
- Franktalkine (After NAC, Ave JC 4/5 to 6/24): 34.8
- GM-CSF (After NAC, Ave JC 4/5 to 6/24): 68.8
- IL-4 (After NAC, Ave JC 4/5 to 6/24): 12.8
- IL-23 (After NAC, Ave JC 4/5 to 6/24): 125.6
- ITAC (After NAC, Ave JC 4/5 to 6/24): 13.34
- MIP-1b (After NAC, Ave JC 4/5 to 6/24): 21.6
- IFNg (Ave JC 4/5 to 6/24): 7.25
- IL-1b (Ave JC 4/5 to 6/24): 0.82
- IL-2 (Ave JC 4/5 to 6/24): 1.45
- IL-6 (Ave JC 4/5 to 6/24): 1.9
- IL-7 (Ave JC 4/5 to 6/24): 5.7
- IL-8 (Ave JC 4/5 to 6/24): 4.4
- IL-10 (Ave JC 4/5 to 6/24): 7.8
- IL-12p70 (Ave JC 4/5 to 6/24): 2
- IL-13 (Ave JC 4/5 to 6/24): 4.32
- IL-17A (Ave JC 4/5 to 6/24): 4
- IL-21 (Ave JC 4/5 to 6/24): 0.7
- MIP-1a (Ave JC 4/5 to 6/24): 11.5
- MIP-3a (Ave JC 4/5 to 6/24): 8.1
- TNFa (Ave JC 4/5 to 6/24): 8.2 pg/mL
- Franktalkine (Ave JC sera for NAC infusion): 34.8 pg/mL
- GM-CSF (Ave JC sera for NAC infusion): 68.8 pg/mL
- IFNg (Ave JC sera for NAC infusion): 7.25 pg/mL
- IL-1b (Ave JC sera for NAC infusion): 0.82 pg/mL
- IL-2 (Ave JC sera for NAC infusion): 1.45 pg/mL
- IL-4 (Ave JC sera for NAC infusion): 12.8 pg/mL
- IL-6 (Ave JC sera for NAC infusion): 1.9 pg/mL
- IL-7 (Ave JC sera for NAC infusion): 5.7 pg/mL
- IL-8 (Ave JC sera for NAC infusion): 4.4 pg/mL
- IL-10 (Ave JC sera for NAC infusion): 7.8 pg/mL
- IL-12p70 (Ave JC sera for NAC infusion): 2 pg/mL
- IL-13 (Ave JC sera for NAC infusion): 4.32 pg/mL
- IL-17A (Ave JC sera for NAC infusion): 4 pg/mL
- IL-21 (Ave JC sera for NAC infusion): 0.7 pg/mL
- IL-23 (Ave JC sera for NAC infusion): 125.6 pg/mL
- ITAC (Ave JC sera for NAC infusion): 13.34 pg/mL
- MIP-1a (Ave JC sera for NAC infusion): 11.5 pg/mL
- MIP-1b (Ave JC sera for NAC infusion): 21.6 pg/mL
- MIP-3a (Ave JC sera for NAC infusion): 8.1 pg/mL
- TNFa (Ave JC sera for NAC infusion): 8.2 pg/mL
- CMD [1]: 1391 pg/mL
- GRO [1]: 2246 pg/mL
- IFNg [1]: 20.14 pg/mL
- IL-1Ra [1]: 247.51 pg/mL
- IL-1a [1]: 43.39 pg/mL
- IL-1b [1]: 6.64 pg/mL
- IL-3 [1]: 7.88 pg/mL
- IL-4 [1]: 53.81 pg/mL
- IL-5 [1]: 38.12 pg/mL
- IL-6 [1]: 23.49 pg/mL
- IL-7 [1]: 21.7 pg/mL
- IL-8 [1]: 16.64 pg/mL
- IL-9 [1]: 16.88 pg/mL
- IL-10 [1]: 97.95 pg/mL
- IL-12p40 [1]: 82.26 pg/mL
- IL-12p70 [1]: 13.65 pg/mL
- IL-13 [1]: 33.66 pg/mL
- IL-15 [1]: 23.97 pg/mL
- IL-17a [1]: 12.34 pg/mL
- IP-10 [1]: 646.43 pg/mL
- L-2 [1]: 14.54 pg/mL
- MCP1 [1]: 846.7 pg/mL
- MCP3 [1]: 16.88 pg/mL
- MIP1a [1]: 17.37 pg/mL
- MIP1b [1]: 34.07 pg/mL
- PDGF-AB/BB [1]: 23823 pg/mL
- PDGFaa [1]: 8654 pg/mL
- Rantes [1]: 9480 pg/mL
- TNFa [1]: 30.58 pg/mL
- TNFb [1]: 6.89 pg/mL
- VEGF [1]: 247.51 pg/mL
- sCD40L [1]: 3545 pg/mL
- EGF (H110 RS post NAC, Aug. 8, 2019): 21.91 pg/mL
- Eotaxin (H110 RS post NAC, Aug. 8, 2019): 116.77 pg/mL
- FGF2 (H110 RS post NAC, Aug. 8, 2019): 44.55 pg/mL
- FIT3L (H110 RS post NAC, Aug. 8, 2019): 15.11 pg/mL
- Fractalkine (H110 RS post NAC, Aug. 8, 2019): 61.83 pg/mL
- GCSF (H110 RS post NAC, Aug. 8, 2019): 6131 pg/mL
- GMCSF (H110 RS post NAC, Aug. 8, 2019): 26.68 pg/mL
- IFNa2 (H110 RS post NAC, Aug. 8, 2019): 31.31 pg/mL
- TGFa (H110 RS post NAC, Aug. 8, 2019): 22.12 pg/mL
- IL-2 (JC sera Apr. 5, 2020): 0.14 pg/mL
- IL-4 (JC sera Apr. 5, 2020): 18.46 pg/mL
- IL-5 (JC sera Apr. 5, 2020): 2.64 pg/mL
- IL-6 (JC sera Apr. 5, 2020): 2.74 pg/mL
- IL-7 (JC sera Apr. 5, 2020): 5.61 pg/mL
- IL-8 (JC sera Apr. 5, 2020): 5.32 pg/mL
- IL-21 (JC sera Apr. 5, 2020): 0.82 pg/mL
- IL-23 (JC sera Apr. 5, 2020): 144.83 pg/mL
- MIP-1a (JC sera Apr. 5, 2020): 11.35 pg/mL
- MIP-1b (JC sera Apr. 5, 2020): 24.47 pg/mL
- TNFa (JC sera Apr. 5, 2020): 9.39 pg/mL
- Franktalkine [2]: 39.54 pg/mL
- GM-CSF [2]: 91.74 pg/mL
- IFNg [2]: 11.6 pg/mL
- IL-1b [2]: 0.87 pg/mL
- IL-10 [2]: 8.12 pg/mL
- IL-12p70 [2]: 2.32 pg/mL
- IL-13 [2]: 4.83 pg/mL
- IL-17A [2]: 6.07 pg/mL
- ITAC [2]: 18.73 pg/mL
- MIP-3a [2]: 11.35 pg/mL
- IL-2 (JC sera Apr. 16, 2020): 0.32 pg/mL
- IL-4 (JC sera Apr. 16, 2020): 11.22 pg/mL
- IL-5 (JC sera Apr. 16, 2020): 2.21 pg/mL
- IL-7 (JC sera Apr. 16, 2020): 4.9 pg/mL
- IL-8 (JC sera Apr. 16, 2020): 3.55 pg/mL
- IL-21 (JC sera Apr. 16, 2020): 0.62 pg/mL
- IL-23 (JC sera Apr. 16, 2020): 116.26 pg/mL
- MIP-1a (JC sera Apr. 16, 2020): 10.8 pg/mL
- MIP-1b (JC sera Apr. 16, 2020): 18.56 pg/mL
- TNFa (JC sera Apr. 16, 2020): 7.45 pg/mL
- Franktalkine [3]: 33.33 pg/mL
- GM-CSF [3]: 54.8 pg/mL
- IFNg [3]: 7.11 pg/mL
- IL-1b [3]: 0.65 pg/mL
- IL-10 [3]: 4.47 pg/mL
- IL-12p70 [3]: 2.1 pg/mL
- IL-13 [3]: 4.44 pg/mL
- IL-17A [3]: 3.15 pg/mL
- ITAC [3]: 11.26 pg/mL
- MIP-3a [3]: 5.58 pg/mL
- IL-2 (JC sera Apr. 23, 2020): 5.42 pg/mL
- IL-4 (JC sera Apr. 23, 2020): 15.94 pg/mL
- IL-5 (JC sera Apr. 23, 2020): 2.21 pg/mL
- IL-7 (JC sera Apr. 23, 2020): 6.39 pg/mL
- IL-8 (JC sera Apr. 23, 2020): 3.72 pg/mL
- IL-21 (JC sera Apr. 23, 2020): 0.68 pg/mL
- IL-23 (JC sera Apr. 23, 2020): 132.6 pg/mL
- MIP-1a (JC sera Apr. 23, 2020): 11.24 pg/mL
- MIP-1b (JC sera Apr. 23, 2020): 16.32 pg/mL
- TNFa (JC sera Apr. 23, 2020): 7.45 pg/mL
- Franktalkine [4]: 34.75 pg/mL
- GM-CSF [4]: 84.17 pg/mL
- IFNg [4]: 6.15 pg/mL
- IL-1b [4]: 0.77 pg/mL
- IL-10 [4]: 6 pg/mL
- IL-12p70 [4]: 2 pg/mL
- IL-13 [4]: 4.17 pg/mL
- IL-17A [4]: 2.78 pg/mL
- ITAC [4]: 10.71 pg/mL
- MIP-3a [4]: 6.78 pg/mL
- IL-2 (JC sera Apr. 30, 2020): 0.06 pg/mL
- IL-4 (JC sera Apr. 30, 2020): 14.43 pg/mL
